Results taken from patent US5776461A, “Cosmetic compositions containing phytovitamin D” (Chesebrough-Pond's USA Co., Division of Conopco, Inc., priority 1996, dated 1998).
“Also recorded” adds a separate entry of the source.

Columns and labels:
HL-60 cells = assay: HL-60 cell differentiation assay (nonspecific esterase expression); assay type: cell-based; conditions: for % differentiation: 48 hrs; for HL-60 differentiation activity (in words): pure vitamin D compounds
Description: This test can be utilized to assess the vitamin D content of plant extracts after converting the glycosides and other hydroxylated forms of vitamin D to 1,25-(OH)2 D. One can achieve this by following the procedure: [drawing 2] Glycosidases cleave vitamin D glycosides to the aglycone form (free steroid form). […] This can be again extracted into chloroform phase and redissolved in ethanol and tested in the HL-60 cell differentiation assay. Using this procedure, the glycosylated and nonglycosylated forms of 25-D and 1,25-(OH)2 D of both vitamin D2 and D3 can be quantitated in HL-60 cell differentiation assay.
a. Plant Extract preparation: The plant extracts are prepared by extracting the dry plant powders with ethanol or other solvents by stirring 1 part of the plant material with 5 to 10 parts of the solvent for 3 to 18 hours at room temperature. Suitable solvents are described hereinbelow. The extracts are clarified by filtration, then dried by evaporation to obtain a dried plant extract.
b. Treatment of Dried Plant Extracts with Glycosidase: 50 mg of dried plant extract are resuspended in 4 ml citrate-phosphate buffer and incubated overnight with a glycosidase enzyme (e.g., from an almond meal extract). After incubation, the mixture is extracted with chloroform. The chloroform phase containing the nonglycosylated vitamin D compounds is dried and resuspended in ethanol at a concentration of 5 mg/ml of ethanol.
c. Hydroxylase Treatment of product of step (b) (Non-Glycosylated Vitamin D Compounds): Human keratinocytes in culture express high amounts of 25(OH) vitamin D 1-a hydroxylase activity. For converting into the 1,25-(OH)2 D, which is detected by the product of step (b) in the HL-60 assay, is treated with a keratinocyte homogenate for 1 hour at 37° C. (50 μl of the product of step b with 1 ml of cell homogenate containing 100-200 μg cell protein). After the treatment, the mixture is extracted with chloroform:methanol (1:1), the chloroform phase is dried down, resuspended in ethanol and used in the HL-60 cell differentiation assay.
d. HL-60 Cell Differentiation Assay: The differentiation of HL-60 cells can be assessed by a simple cytochemical method for the expression of non-specific esterase activity (expressed only in the differentiated monocyte/macrophage phenotype) using α-naphthyl acetate as a substrate. HL-60 cell line is obtained (e.g. from American Type Culture Collection (ATCC)) and cultures are established in the laboratory (e.g. using RPMI medium containing 20% fetal calf serum (FCS)). For incubation with the different plant extracts, cells are washed in phosphate buffered saline (PBS), then resuspended in RPMI medium containing 10% FCS and plated at a density of 750,000 cells per 1 ml in 6 well plates. The plates are then treated with either standard 1,25-(OH)2 D (0.1 to 100 nM) or the different plant extracts in ethanol, using a maximum ethanol concentration of 5 μl/ml of medium. The cells are treated for 48 hrs before processing for the esterase cytochemical assay.
Expression of nonspecific esterase in HL-60 cells is determined after mounting the cells onto slides using Cytospin. The slides are then fixed in citrateacetone-methanol for 1 min at room temperature, washed in deionized water and air dried for 20 min. The substrate solution for esterase is prepared according to the procedure provided by Sigma by adding 1 capsule of Fast Blue RR salt to 50 ml Trizma buffer (pH 7.6)and 2 ml of α-naphthyl acetate solution. The slides are incubated at 37° C. in this solution for 30 min in the dark. The slides are washed for 3 min in water, counterstained using Mayer's Hematoxylin solution air dried and viewed under microscope. The number of cells showing dark brown precipitate indicating esterase activity is counted and calculated as a percent of the total number of cells in 6 different areas of the slide (approximately 500 total cells).

[1] = system: Cultured Human Keratinocytes; conditions: cited from earlier work
keratinocyte = conditions: cited from earlier work
[2] = system: adult human keratinocytes; assay: cornified envelope formation of adult human keratinocytes; assay type: cell-based; conditions: Table 6; no almond meal extract, 48 hrs; 1,25-OH2 D at 1 nM
Description: In this method, keratinocytes were treated with the various extracts dissolved in ethanol (as described for the HL-60 assay) for 48 hrs in the presence of 5 uCi of 35S methionine included in the medium. The labelled methionine gets incorporated into the newly synthesized proteins during this 48 hr. period, including the proteins required for the formation of cornified envelopes. […] This treatment allows Ca to flow into the cells, maximally activate the enzyme transglutaminase and crosslinks all the labelled cornified envelope precursor proteins to form labelled cornified envelopes. The cells were then dissolved in 2%SDS/40 mM DTT, and the amount of insoluble cornified envelopes was quantitated by scintillation counting after separating from the soluble proteins by filtration on 0.2 micron filters.

[3] = system: vitamin D binding protein; conditions: 25-D = 100%; cited from earlier work

| Molecule | % differentiation (HL-60 cells; 0.1 nM) [%] | % differentiation (HL-60 cells; 1 nM) [%] | % differentiation (HL-60 cells; 10 nM) [%] | % differentiation (HL-60 cells; 100 nM) [%] | HL-60 differentiation activity (in words) (HL-60 cells) | detection (cross-reactivity) in vitamin D binding assay [3] [%] | also measured |
| --- | --- | --- | --- | --- | --- | --- | --- |
| C=C1CC[C@H](O)C/C1=C/C=C1\CCC[C@]2(C)[C@@H]([C@H](C)CCCC(C)C)CC[C@@H]12 [Vitamin D3, cholecalciferol] | 0 | 0 | 0 | 0 |  |  | conversion in skin to 25-D (in words) [1]: nor is it converted in the skin to 25-D; keratinocyte prodifferentiating activity (in words) (keratinocyte; applied topically to skin): neither has keratinocyte prodifferentiating activity |
| C=C1/C(=C\C=C2/CCC[C@]3(C)[C@@H]([C@H](C)CCC(O)C(C)(C)O)CC[C@@H]23)C[C@@H](O)CC1O (stereo partly drawn) [1,24,25-D(OH)3] |  |  |  |  | inactive at all concentrations |  |  |
| C=C1/C(=C\C=C2/CCC[C@]3(C)[C@@H]([C@H](C)CCCC(C)(C)O)CC[C@@H]23)C[C@@H](O)C[C@@H]1O [1,25-(OH)2 D, 1,25-Dihydroxyvitamin D3] | 5 | 50 | 90 | 95 | induces HL-60 cell differentiation in a dose-dependent manner; also recorded: promoted | 4 | cornified envelope formation, no hydrolysis [2]: 207.6 % of control; lowest concentration at which differentiation ability could be detected (HL-60 cells; HL-60, 48 hrs): 0.1 nM; EC50 (HL-60 cells; HL-60, 48 hrs, read-out: concentration for half maximal differentiation): 1 nM |
| C=C1CC[C@H](O)C/C1=C/C=C1\CCC[C@]2(C)[C@@H]([C@H](C)CCC(O)C(C)(C)O)CC[C@@H]12 (stereo partly drawn) [24,25(OH)2 D] |  |  |  |  |  | 70 |  |
| Vitamin D |  |  |  |  |  | 0.4 | HL-60 differentiation activity (in words) (HL-60 cells; listed as non-hydroxylated vitamin D): inactive at all concentrations; HL-60 differentiation activity (in words) (HL-60 cells; listed as nonhydroxylated vitamin D): do not induce its differentiation; biological activity (in words) (keratinocyte; vitamin D per se): biologically inactive |
| C=C1CC[C@H](O)C/C1=C/C=C1\CCC[C@]2(C)[C@@H]([C@H](C)CCCC(C)(C)O)CC[C@@H]12 [25-D, 25-hydroxycholecalciferol] |  | 0 | 0 | 0 | inactive at all concentrations | 100 | HL-60 differentiation activity (in words) (HL-60 cells; listed as 25D): do not induce its differentiation |
